Results from patent US10988524B2, “Modified relaxin B chain peptides and their therapeutic use” (priority 2018, dated 2021).
In brackets after ≈: the same amount, converted by molar mass. Read-outs that look alike come from different tables or passages of the source. Non-standard residues stand in square brackets, D forms with d. Residues, ends and D or L forms follow the SMILES beside them. Nle = CCCC[C@H](N)C(=O)O; Aib = CC(C)(N)C(=O)O

Assays:
[1] = Stability in human plasma; assay type: in vitro ADME; details: 37° C.
Description: (§1) Prior to the testing of stability in plasma of a peptide batch, its purity (HPLC-UV) was determined.
(§2) Rat and Human plasma: anti-coagulant sodium or lithium heparin.
(§3) 100 μM solution of study compound in 50 mM Phosphate buffer pH 7.4.
(§4) 950 μL plasma is pre-incubated for 5 min at 37° C. 50 μL of compound stock solution is added. Final compound concentration=5 μM. Vortex and transfer 1504, plasma into an Eppendorf for each time point. The time points 0-1 and −4 h are carried out in duplicate for each species.
(§5) After incubation extract 1504, plasma with 6004, Acetonitrile containing with 1% TFA. Vortex and centrifuge 10 min at 14600 rpm. Dry 2004, supernatant under N2. Reconstitute sample in 200 μL of H2O/CH3CN 98/2+0.1% FA+50 ng/ml Labetalol and analyze using the analytical system used in solubility and stability studies.
(§6) For determination of the amount of the remaining peptide, the peak areas of the target compound at t0 and each time point […] were compared, resulting in “% remaining peptide”, following the equation
(§7) % remaining peptide=[(peak area peptide time)×100]/peak area peptide t0. The stability is expressed as “% remaining peptide”.

Stability in rat plasma = assay type: in vitro ADME; details: 37° C.
Description: as §1, §2, §3, §4, §5, §6, §7

[2] = Solubility testing of peptides in buffer; assay type: physicochemical
RXFP1 = biological target: T1, RXFP1 (Homo sapiens, UniProt Q9HBX9); experiment: OVCAR5 cAMP assay (RXFP1 agonist activity, HTRF)
T1 sequence (Q9HBX9 1-757): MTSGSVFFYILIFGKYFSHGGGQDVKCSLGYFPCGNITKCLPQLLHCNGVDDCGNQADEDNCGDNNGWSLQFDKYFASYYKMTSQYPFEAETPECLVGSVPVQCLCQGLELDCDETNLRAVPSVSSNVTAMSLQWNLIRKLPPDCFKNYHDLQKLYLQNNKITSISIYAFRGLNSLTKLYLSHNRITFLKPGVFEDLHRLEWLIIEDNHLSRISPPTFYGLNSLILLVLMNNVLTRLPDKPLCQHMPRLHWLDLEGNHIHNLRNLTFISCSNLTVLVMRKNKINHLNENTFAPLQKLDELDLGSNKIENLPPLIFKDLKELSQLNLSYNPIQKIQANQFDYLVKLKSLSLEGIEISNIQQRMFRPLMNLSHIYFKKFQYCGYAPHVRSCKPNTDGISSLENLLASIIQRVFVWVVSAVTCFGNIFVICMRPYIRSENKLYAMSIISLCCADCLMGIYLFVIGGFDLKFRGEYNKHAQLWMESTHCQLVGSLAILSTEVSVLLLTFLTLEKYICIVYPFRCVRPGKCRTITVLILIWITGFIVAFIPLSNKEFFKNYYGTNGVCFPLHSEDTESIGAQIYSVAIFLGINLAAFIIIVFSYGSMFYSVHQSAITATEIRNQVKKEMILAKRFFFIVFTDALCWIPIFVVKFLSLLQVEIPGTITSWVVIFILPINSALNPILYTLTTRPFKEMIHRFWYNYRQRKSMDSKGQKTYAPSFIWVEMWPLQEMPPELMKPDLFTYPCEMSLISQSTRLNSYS

What does the source list for CCCC[C@H](NC(=O)CNC(=O)[C@H](CCC(=O)O)NC(=O)C(C)(C)NC(=O)C(C)(C)NC(=O)[C@@H](NC(=O)[C@H](CCCCNC(C)=O)NC(=O)[C@H](C)NC(=O)[C@H](CCCNC(=N)N)NC(=O)[C@@H](NC(=O)[C@H](CCCCN)NC(=O)[C@H](CCC(=O)O)NC(=O)[C@H](CCCNC(=N)N)NC(=O)CNC(=O)[C@H](CCC(=O)O)NC(=O)[C@H](CC(C)C)NC(C)=O)C(C)C)[C@@H](C)CC)C(=O)N[C@@H](CO)C(=O)N[C@H](C(=O)N[C@@H](Cc1c[nH]c2ccccc12)C(=O)N[C@@H](CO)C(=O)NC(C)(C)C(=O)N[C@@H](CCCNC(=N)N)C(=O)N[C@@H](CCCCN)C(=O)N[C@@H](CCCCNC(C)=O)C(N)=O)[C@@H](C)O [compound 5] (Ac-LEGREKVRAK(Ac)I[Aib][Aib]EG[Nle]STWS[Aib]RKK(Ac)-NH2)?
Human Plasma stability % remaining, T = 0 ([1]; 5 μM, T = 0): 100%; remaining at 1 h, 5 μM ([1]; human plasma (sodium or lithium heparin), 1 h): 93%; remaining at 4 h, 5 μM ([1]; human plasma (sodium or lithium heparin), 4 h): 74%; Rat plasma stability % remaining, T = 0 (Stability in rat plasma; 5 μM, T = 0): 100%; remaining at 1 h, 5 μM (Stability in rat plasma; rat plasma (sodium or lithium heparin), 1 h): 86%; remaining at 4 h, 5 μM (Stability in rat plasma; rat plasma (sodium or lithium heparin), 4 h): 60%; solubility ([2]; acetate buffer, pH 4.5, read-out: Solubility Acetate buffer pH 4.5): 4000 µg/mL (≈ 1400 µM); solubility ([2]; phosphate buffer, pH 7.4, read-out: Solubility phosphate buffer pH 7.4): 4000 µg/mL (≈ 1400 µM); Emax (RXFP1; OVCAR-5, read-out: cAMP assay in OVCAR 5 cells Emax, maximal intracellular cAMP relative to H2-relaxin in the same test occasion): 98%; EC50 (RXFP1; cAMP assay in OVCAR 5 cells EC50 (nM), OVCAR5 cells expressing endogenous RXFP1, cAMP by HTRF, 30 min at 37° C., 1 mM IBMX): ≤ 10 nM
